ChEMBL document CHEMBL4033695, “Synthesis and biological evaluation of novel 5-aryl-4-(5-nitrofuran-2-yl)-pyrimidines as potential anti-bacterial agents” (Bioorg Med Chem Lett, 2017)
In brackets after ≈: the same amount, converted by molar mass.

Experiments:
Klebsiella pneumoniae = assay: Antibacterial activity against Klebsiella pneumoniae ATCC 13883 by two-fold serial dilution method; type: functional
Shigella flexneri = assay: Antibacterial activity against Shigella flexneri RCPM 1a8516 by two-fold serial dilution method; type: functional
Staphylococcus aureus [1] = assay: Antibacterial activity against Staphylococcus aureus ATCC 25923 by two-fold serial dilution method; type: functional
Neisseria gonorrhoeae [2] = assay: Potency index, ratio of spectinomycin MIC to compound MIC for Neisseria gonorrhoeae NCTC 8375/ATCC 19424; type: functional
Serratia marcescens = assay: Antibacterial activity against Serratia marcescens ATCC 13880 by two-fold serial dilution method; type: functional
[3] = Toxicity in mouse administered as single oral dose measured for 14 days; details: in vivo
Neisseria gonorrhoeae [4] = assay: Antibacterial activity against gonorrhea patient derived azithromycin resistant-Neisseria gonorrhoeae by two-fold serial dilution method; type: functional
Citrobacter braakii = assay: Antibacterial activity against Citrobacter braakii ATCC 101/57 by two-fold serial dilution method; type: functional
[5] = Cytotoxicity against mouse MacCoy B cells after 24 hrs by p-Nitro-Blue tetrazolium chloride dye based colorometric method; type: cell-based
Escherichia coli = assay: Antibacterial activity against Escherichia coli ATCC 8739 by two-fold serial dilution method; type: functional
Neisseria gonorrhoeae [6] = assay: Antibacterial activity against Neisseria gonorrhoeae NCTC 12700/ATCC 49226 by two-fold serial dilution method; type: functional
Staphylococcus aureus [7] = assay: Potency index, ratio of spectinomycin MIC to compound MIC for Staphylococcus aureus ATCC 25923; type: functional
[8] = tested on: Mycobacterium tuberculosis; assay: Antitubercular activity against Mycobacterium tuberculosis H37Rv after […] by micro broth dilution method; type: functional
[9] = Potency index, ratio of compound LD50 to isoniazid LD50 for mouse; type: ADME; details: in vivo
Neisseria gonorrhoeae [10] = assay: Antibacterial activity against Neisseria gonorrhoeae NCTC 8375/ATCC 19424 by two-fold serial dilution method; type: functional
Proteus vulgaris = assay: Antibacterial activity against Proteus vulgaris RCPM 160125 (222) by two-fold serial dilution method; type: functional
Pseudomonas aeruginosa = assay: Antibacterial activity against Pseudomonas aeruginosa ATCC 9027 by two-fold serial dilution method; type: functional
Neisseria gonorrhoeae [11] = assay: Potency index, ratio of spectinomycin MIC to compound MIC for Neisseria gonorrhoeae NCTC 12700/ATCC 49226; type: functional
[12] = Toxicity in orally dosed mouse; type: organism-based; details: in vivo, po

Compound | MIC (Klebsiella pneumoniae) [µg/mL] | MIC (Shigella flexneri) [µg/mL] | MIC (Staphylococcus aureus [1]) [µg/mL] | Ratio (Neisseria gonorrhoeae [2]) | MIC (Serratia marcescens) [µg/mL] | LD50 at 336 h [3] [mg/kg] | MIC (Neisseria gonorrhoeae [4]) [µg/mL] | MIC (Citrobacter braakii) [µg/mL] | IC50 [5] [µM] | MIC (Escherichia coli) [µg/mL] | MIC (Neisseria gonorrhoeae [6]) [µg/mL] | Ratio (Staphylococcus aureus [7]) | MIC [8] [µg/mL] | selectivity ratio [9] | MIC (Neisseria gonorrhoeae [10]) [µg/mL] | MIC (Proteus vulgaris) [µg/mL] | MIC (Pseudomonas aeruginosa) [µg/mL] | Ratio (Neisseria gonorrhoeae [11]) | LD50 [12] [mg/kg]
O=[N+]([O-])c1ccc(-c2ncncc2Br)o1 | > 250 | 7.8 (≈ 28.9 µM) | 7.8 (≈ 28.9 µM) | <=16 | > 250 | 300 | 3.9 (≈ 14.4 µM) | > 250 | 167 | > 250 | 0.97 (≈ 3.59 µM) | 4 | 1.5 (≈ 5.55 µM) | 2 | 7.8 (≈ 28.9 µM) | > 250 | > 250 | <=16 | –
CN[C@@H]1[C@H](O)[C@H](NC)[C@H]2O[C@@]3(O)C(=O)C[C@@H](C)O[C@H]3O[C@@H]2[C@H]1O [SPECTINOMYCIN] | 15.6 (≈ 46.9 µM) | 7.8 (≈ 23.5 µM) | 31.2 (≈ 94 µM) | – | 15.6 (≈ 46.9 µM) | – | 15.6 (≈ 46.9 µM) | 31.2 (≈ 94 µM) | > 752 | 15.6 (≈ 46.9 µM) | 15.6 (≈ 46.9 µM) | – | – | – | 15.6 (≈ 46.9 µM) | 125 (≈ 376 µM) | 250 (≈ 752 µM) | – | > 10000
O=[N+]([O-])c1ccc(-c2ncncc2-c2ccc(F)cc2)o1 | – | – | 62.5 (≈ 219 µM) | <=16 | – | – | 31.2 (≈ 110 µM) | – | 69.8 | – | 31.2 (≈ 110 µM) | 4 | 12.5 (≈ 43.8 µM) | – | 15.6 (≈ 54.7 µM) | – | – | <=16 | –
O=[N+]([O-])c1ccc(-c2ncncc2-c2ccc(C(F)(F)F)cc2C(F)(F)F)o1 | > 500 | > 250 | 15.6 (≈ 38.7 µM) | <=16 | > 500 | – | 1000 (≈ 2480 µM) | > 500 | 45.5 | > 500 | 3.9 (≈ 9.67 µM) | 4 | 12.5 (≈ 31 µM) | – | 1000 (≈ 2480 µM) | > 250 | > 500 | <=16 | –
O=[N+]([O-])c1ccc(-c2ncncc2-c2ccccc2)o1 | > 250 | > 250 | 15.6 (≈ 58.4 µM) | <=16 | > 250 | 450 | 7.8 (≈ 29.2 µM) | > 250 | 52.5 | > 250 | 1.95 (≈ 7.3 µM) | 4 | 3.1 (≈ 11.6 µM) | 3 | 3.9 (≈ 14.6 µM) | > 250 | > 250 | <=16 | –
O=[N+]([O-])c1ccc(-c2ncncc2-c2ccccc2F)o1 | > 250 | > 250 | 15.6 (≈ 54.7 µM) | <=16 | > 250 | – | 7.8 (≈ 27.3 µM) | > 250 | 67.5 | > 250 | 1.95 (≈ 6.84 µM) | 4 | 12.5 (≈ 43.8 µM) | – | 7.8 (≈ 27.3 µM) | > 250 | > 250 | <=16 | –
NNC(=O)c1ccncc1 [ISONIAZID] | – | – | – | – | – | – | – | – | – | – | – | – | 0.1 (≈ 0.729 µM) | – | – | – | – | – | –
O=[N+]([O-])c1ccc(-c2ncncc2-c2ccccc2C(F)(F)F)o1 | > 250 | 62.5 (≈ 186 µM) | 15.6 (≈ 46.5 µM) | <=16 | > 250 | – | 15.6 (≈ 46.5 µM) | > 250 | 74.4 | > 250 | 3.9 (≈ 11.6 µM) | 4 | 12.5 (≈ 37.3 µM) | – | 15.6 (≈ 46.5 µM) | > 250 | > 250 | <=16 | –
O=[N+]([O-])c1ccc(-c2ncncc2-c2ccc(F)cc2F)o1 | > 500 | > 250 | 31.2 (≈ 103 µM) | <=16 | > 500 | – | 31.2 (≈ 103 µM) | > 500 | 66.8 | > 500 | 3.9 (≈ 12.9 µM) | 4 | 12.5 (≈ 41.2 µM) | – | 31.2 (≈ 103 µM) | > 250 | > 500 | <=16 | –
NC(=O)c1cnccn1 [PYRAZINAMIDE] | – | – | – | – | – | – | – | – | – | – | – | – | 12.5 (≈ 102 µM) | – | – | – | – | – | –
O=[N+]([O-])c1ccc(-c2ncncc2-c2cc(F)cc(F)c2)o1 | – | – | – | – | – | – | – | – | – | – | – | – | 12.5 (≈ 41.2 µM) | – | > 1000 | – | – | – | –
O=[N+]([O-])c1ccc(-c2ncncc2-c2ccc(C(F)(F)F)cc2)o1 | – | – | – | – | – | – | – | – | – | – | – | – | 12.5 (≈ 37.3 µM) | – | 500 (≈ 1490 µM) | – | – | – | –
O=[N+]([O-])c1ccc(-c2ncncc2-c2cccc(F)c2)o1 | > 250 | > 250 | > 250 | <=16 | > 250 | – | 15.6 (≈ 54.7 µM) | > 250 | 100 | > 250 | 0.97 (≈ 3.4 µM) | 4 | 12.5 (≈ 43.8 µM) | – | 3.9 (≈ 13.7 µM) | > 250 | > 250 | <=16 | –
O=[N+]([O-])c1ccc(-c2ncncc2-c2cc(C(F)(F)F)cc(C(F)(F)F)c2)o1 | – | – | – | – | – | – | – | – | – | – | – | – | 12.5 (≈ 31 µM) | – | > 1000 | – | – | – | –
O=[N+]([O-])c1ccc(-c2ncncc2-c2cccc(C(F)(F)F)c2)o1 | – | – | – | – | – | – | – | – | – | – | – | – | 12.5 (≈ 37.3 µM) | – | 125 (≈ 373 µM) | – | – | – | –
